# Test results as given in PMC9691367, “The PROTAC selectively degrading Bcl-xL represents a novel Hedgehog pathway inhibitor with capacity of combating resistance to Smoothened inhibitors while sparing bone growth” (Theranostics, 2022).
# pIC50: −log10 of the molar value.
# Experiments:
# [1] = tested on: light II and NIH-3T3 cells; test: In vitro cytotoxicity assay (MTT); format: cell-based; details: 10 μM, 72 h
# Protocol: Cells were seeded in 96-well plates at an appropriate density and treated with compounds for 72 h. The effects on proliferation were determined using MTT according to the manufacturer's protocol.
# Figure S2. (A) Viability of NIH-3T3 cells and light II cells was determined by MTT cytotoxicity assays after incubation with various concentrations of SIAIS361034 as indicated for 72 h. Data represent mean ± SD (n = 3). (B) NF-κB luciferase analysis of the effect of SIAIS361034 on NF-κB signaling pathway in 293T cells.The 293T cells were transfected with NF-κB luciferase reporter and Renilla-TK plasmids and […]
# μM) for 6 h. Data represent mean ± SD (n = 3). (C) TCF/LEF luciferase analysis of the effect of SIAIS361034 on Wnt signaling pathway in LS174T cells. The LS174T cellswere transfected with TCF/LEF luciferase reporter and Renilla-TK plasmids and […]
# (§1) Data represent mean ± SD (n = 3).
# (§2) (1 picture or pasted object on this page, not shown here)
# [2] = tested on: Hh pathway (Gli-luciferase) provoked by Gli2; test: Dual luciferase reporter assay, Hh activity initiated by ectopic Gli2-HA in light II cells; format: cell-based
# Description: The TCF/LEF luciferase reporter plasmid, NF-κB luciferase reporter plasmid, and TK-Renilla luciferase plasmid were purchased from Promega (Madison, WI, USA). Smo plasmid was purchased from Origene (Rockville, MD, USA). The Smo mutant plasmids were generated from wild type Smo plasmid using QuickChange Site-Directed Mutagenesis kit from Agilent (Santa Clara, CA, USA) and confirmed by sequencing. Information on Smo mutants plasmids is provided in Supplementary data 2. The Gli1 plasmid and Gli2-HA plasmid were obtained from Addgene (Cambridge, MA, USA). Transient transfections were performed by Lipofectamine 2000 reagent from Invitrogen (Grand Island, NY, USA) according to the manufacturer's instructions.
# (§3) Cells seeded in 96-well plates were treated with various treatments as indicated. The luciferase activity in the cell lysates was measured using Dual-Luciferase Reporter Assay System (Promega, Madison, WI, USA) according to the manufacturer's instructions in a luminometer (Molecular Devices, Sunnyvale, CA). The firefly luciferase values were normalized to Renilla values.
# [3] = tested on: bone growth of young mice; test: Bone growth of young mice (body weight, Micro-CT, H&E, IHC); format: in vivo, mouse
# Protocol: Skeleton Micro-CT images of mice were taken under anesthesia. The femurs were fixed and stored in 4% PFA at 4 °C. Mice and femurs were scanned using Inveon PET-CT (Siemens). Bone tissues were computed with Inveon Acquisition Workplace (IAW). Image data were visualized and analyzed by Inveon Viewer.
# Femurs were fixed in 4% PFA and decalcified in 14% EDTA for 2 weeks at 4 °C. Bone tissues were embedded in paraffin. Thin sections were stained with hematoxylin and eosin (H&E) according to the manufacturer's instructions. For immunohistochemistry (IHC), paraffin-embedded sections of femurs were baked at 60 °C for 20 min, deparaffinized by xylene for 25 min, rehydrated through ethanol series, and incubated with citrate buffer at 95 °C for 20 min for antigen retrieval. Sections were incubated with the primary antibodies as indicated overnight at 4 °C, followed by goat anti-rabbit secondary antibody. The primary antibodies used in this study include Bcl-xL (1:2000, ab178844, Abcam) and Gli1 (1:100, 101156-T10, Sino Biological).
# [4] = tested on: IKZF1, IKZF3, SALL4, GSPT1; test: Western blot of CRBN neo-substrates in NIH-3T3 cells; format: cell-based; details: 24 h
# Protocol: Cells were lysed in cell lysis buffer (50 mM Tris pH 8.0, 150 mM NaCl, 10% glycerol, 1 mM EDTA, 50 mM NaF, and 0.1% NP-40) supplemented with protease and phosphatase inhibitors. Total protein extracts of tissues were generated in radioimmunoprecipitation (RIPA) assay lysis buffer containing complete protease and phosphatase inhibitor cocktail. Protein content was quantified using the Pierce BCA Protein Assay Kit (#23225, Thermo Fisher Scientific). The proteins were separated by SDS-PAGE, electrophoretically transferred to polyvinylidene difluoride (PVDF) blotting membranes (#LC2002, Thermo Fisher Scientific), and subjected to routine immunoblot analysis with primary antibodies as follows: anti-Bcl-2 (#15071), anti-Mcl-1 (#94296), anti-VHL (#68547), anti-CRBN (#71810), and anti-Sufu (#2522) were obtained from Cell Signaling Technology (Danvers, Massachusetts, USA); anti-Bcl-xL (#ab32370), anti-Gli1 (#ab134906), and anti-Smoothened (#ab236465) were obtained from Abcam (Cambridge, CB2 0AX, UK); anti-GAPDH (#60004-1-Ig) and anti-β-tubulin (#10094-1-AP) were purchased from Proteintech Group, Inc. (Rosemont, IL 60018, USA). The results were quantified by densitometry using ImageJ software (NIH). […]
# hydrochloride; DMAP = 4-dimethylaminopyridine; TFA = trifluoroacetic acid; DMF = N,N-dimethylformamide. […]
# NF-κB signaling pathway = test: NF-κB luciferase reporter assay in 293T cells; format: cell-based; details: TNF-α 10 ng/mL, 6 h, SIAIS361034 10 μM, BAY 11-7082 20 μM
# Protocol: as §3, with “values. […]” for “values.”
# Data represent mean ± SD (n = 3). (B) NF-κB luciferase analysis of the effect of SIAIS361034 on NF-κB signaling pathway in 293T cells.The 293T cells were transfected with NF-κB luciferase reporter and Renilla-TK plasmids and […]
# μM) for 6 h. Data represent mean ± SD (n = 3). […]
# as §1, §2
# Gli1 = test: Immunofluorescence staining of Gli1 in 293T cells transfected with Gli1; format: cell-based; details: 293T cells transfected with Gli1, 1 µM, 24 h
# Protocol: Cells were fixed with 4% paraformaldehyde (PFA) for 15 min, permeabilized with 0.3% Triton X-100 in PBS for 10 min, and blocked with 1% BSA in PBS for 2 h. After that, the cells were further incubated with rabbit anti-Gli1 antibody (#101156-T10, SinoBiological) at 4 °C overnight. Then cells were stained with the Alexa Fluor®594-conjugated Goat Anti-rabbit IgG secondary antibody (red) for 1.5 h. Nuclei were counterstained with DAPI (blue). The immunofluorescent images of cells were captured under a fluorescence microscope (Leica).
compound,measurement,setting,value
CC1(C)CCC(c2ccc(Cl)cc2)=C(CN2CCN(c3ccc(C(=O)NS(=O)(=O)c4ccc(NCCCN5CCN(CCCC#Cc6cccc7c6CN(C6CCC(=O)NC6=O)C7=O)CC5)c(S(=O)(=O)C(F)(F)F)c4)cc3)CC2)C1 (centres unmarked) [SIAIS361034],cytotoxicity (MTT),[1],no toxic effects
same,Hh activity evoked by ectopic expression of Gli2,[2],significant potency
same,pIC50,"[2]; ectopic Gli2-HA, 36 h",7.07
same,columnar organization of chondrocytes in the growth plate (H&E),"[3]; cross sections of the femur, mice treated P12 to P16",not destroyed
same,skeleton (Micro-CT),"[3]; mice at 6 weeks of age, treated P12 to P16",no abnormalities in the skeleton
same,growth plate of femurs (Micro-CT) compared with Vehicle,[3]; mice treated P12 to P16,no significant difference
same,levels of Bcl-xL in femurs (IHC),[3]; mice treated P12 to P16,No change
same,expression levels of Gli1 in femurs (IHC),"[3]; mice treated P12 to P16, compared with Vehicle",no alteration
same,"abundance of CRBN neo-substrates IKZF1, IKZF3, SALL4, GSPT1",[4],did not affect abundance
same,NF-κB luciferase activity activated by TNF-α,NF-κB signaling pathway,no inhibitory activity
same,translocation of Gli1 from cytoplasm into nucleus,Gli1,suppressed translocation of Gli1 from cytoplasm into nucleus
